Source: patent publication US20170050957A1, “4-AMINO-6-(HETEROCYCLIC)PICOLINATES AND 6-AMINO-2-(HETEROCYCLIC)PYRIMIDINE-4-CARBOXYLATES AND THEIR USE AS HERBICIDES” (Dow AgroSciences LLC, priority 2013, published 2017)
Where two headings read alike, the source gives them in different places.

How the values were obtained:
[1] = test system: Key Grass and Sedge Weeds as well as Grass Crops; experiment: Post-emergent Test II herbicidal activity (Table 16); format: in vivo; conditions: post-emergence, 336 h, 14 d; for pest or weed control at 35 g/ha: 35 g ai/ha; for pest or weed control at 70 g/ha: 70 g ai/ha; for pest or weed control at 140 g/ha: 140 g ai/ha
Procedure, shortened: (§1)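 Visual injury rating (0 = none, 100 = complete kill) taken 14 d after treatment, relative to untreated plants. Compounds in acetone/DMSO with crop oil concentrate and Triton X-155 were track-sprayed at 187 L/ha onto seedlings at the first-second true leaf stage.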

[2] = test system: Key Broadleaf Weed and Crop Species; experiment: Post-emergent Test II herbicidal activity (Table 15); format: in vivo; conditions: post-emergence, 336 h, 14 d; for pest or weed control at 35 g/ha: 35 g ai/ha; for pest or weed control at 70 g/ha: 70 g ai/ha; for pest or weed control at 140 g/ha: 140 g ai/ha
Procedure, shortened: as §1

[3] = Cyperus esculentus, yellow nutsedge (Cyperus esculentus), read-out: Visual Growth Reduction (%) 14 Days After Application, CYPES
[4] = Echinochloa crus-galli, barnyardgrass (Echinochloa crus-galli), read-out: Visual Growth Reduction (%) 14 Days After Application, ECHCG
[5] = Oryza sativa, rice (Oryza sativa), read-out: Visual Growth Reduction (%) 14 Days After Application, ORYSA
[6] = Setaria faberi, giant foxtail (Setaria faberi), read-out: Visual Growth Reduction (%) 14 Days After Application, SETFA
[7] = Triticum aestivum, wheat, spring (Triticum aestivum), read-out: Visual Growth Reduction (%) 14 Days After Application, TRZAS
[8] = Zea mays, maize, corn (Zea mays), read-out: Visual Growth Reduction (%) 14 Days After Application, ZEAMX
[9] = Abutilon theophrasti, velvetleaf (Abutilon theophrasti), read-out: Visual Growth Reduction (%) 14 Days After Application, ABUTH
[10] = Amaranthus retroflexus, redroot pigweed (Amaranthus retroflexus), read-out: Visual Growth Reduction (%) 14 Days After Application, AMARE
[11] = Brassica napus, oilseed rape, canola (Brassica napus), read-out: Visual Growth Reduction (%) 14 Days After Application, BRSNN
[12] = Chenopodium album, lambsquarters (Chenopodium album), read-out: Visual Growth Reduction (%) 14 Days After Application, CHEAL
[13] = Euphorbia heterophylla, wild poinsettia (Euphorbia heterophylla), read-out: Visual Growth Reduction (%) 14 Days After Application, EPHHL
[14] = Helianthus annuus, sunflower (Helianthus annuus), read-out: Visual Growth Reduction (%) 14 Days After Application, HELAN

Row | Structure (SMILES) | pest or weed control at 35 g/ha [1, 3] [%] | pest or weed control at 70 g/ha [1, 3] [%] | pest or weed control at 140 g/ha [1, 3] [%] | pest or weed control at 35 g/ha [1, 4] [%] | pest or weed control at 70 g/ha [1, 4] [%] | pest or weed control at 140 g/ha [1, 4] [%] | pest or weed control at 35 g/ha [1, 5] [%] | pest or weed control at 70 g/ha [1, 5] [%] | pest or weed control at 140 g/ha [1, 5] [%] | pest or weed control at 35 g/ha [1, 6] [%] | pest or weed control at 70 g/ha [1, 6] [%] | pest or weed control at 140 g/ha [1, 6] [%] | pest or weed control at 35 g/ha [1, 7] [%] | pest or weed control at 70 g/ha [1, 7] [%] | pest or weed control at 140 g/ha [1, 7] [%] | pest or weed control at 35 g/ha [1, 8] [%] | pest or weed control at 70 g/ha [1, 8] [%] | pest or weed control at 140 g/ha [1, 8] [%] | pest or weed control at 35 g/ha [2, 9] [%] | pest or weed control at 70 g/ha [2, 9] [%] | also measured
1 | COC(=O)c1nc(-c2ccc(Cl)c3[nH]ccc23)cc(N)c1Cl [Compound 1.44] | 0 to 29 | 0 to 29 | 0 to 29 | 0 to 29 | 0 to 29 | 0 to 29 | 0 to 29 | 0 to 29 | 0 to 29 | 0 to 29 | 0 to 29 | 0 to 29 | 0 to 29 | 0 to 29 | 0 to 29 | 0 to 29 | 0 to 29 | 0 to 29 | 0 to 29 | 75 to 84 | pest or weed control at 140 g/ha [2, 9]: 85 to 94%; pest or weed control at 35 g/ha [2, 10]: 85 to 94%; pest or weed control at 70 g/ha [2, 10]: 95 to 100%; pest or weed control at 140 g/ha [2, 10]: 95 to 100%; pest or weed control at 35 g/ha [2, 11]: 0 to 29%; pest or weed control at 70 g/ha [2, 11]: 0 to 29%; pest or weed control at 140 g/ha [2, 11]: 30 to 44%; pest or weed control at 35 g/ha [2, 12]: 85 to 94%; pest or weed control at 70 g/ha [2, 12]: 85 to 94%; pest or weed control at 140 g/ha [2, 12]: 95 to 100%; pest or weed control at 35 g/ha [2, 13]: 45 to 59%; pest or weed control at 70 g/ha [2, 13]: 75 to 84%; pest or weed control at 140 g/ha [2, 13]: 85 to 94%; pest or weed control at 35 g/ha [2, 14]: 0 to 29%; pest or weed control at 70 g/ha [2, 14]: 0 to 29%; pest or weed control at 140 g/ha [2, 14]: 0 to 29%; melting point: 116 °C
2 | COC(=O)c1nc(-c2ccc(Cl)c3[nH]ccc23)nc(N)c1OC [Compound 1.45] | 0 to 29 | 0 to 29 | 0 to 29 | 0 to 29 | 0 to 29 | 0 to 29 | 0 to 29 | 0 to 29 | 0 to 29 | 0 to 29 | 0 to 29 | 0 to 29 | 0 to 29 | 0 to 29 | 0 to 29 | 0 to 29 | 0 to 29 | 0 to 29 | 0 to 29 | 0 to 29 | pest or weed control at 140 g/ha [2, 9]: 0 to 29%; pest or weed control at 35 g/ha [2, 10]: 0 to 29%; pest or weed control at 70 g/ha [2, 10]: 0 to 29%; pest or weed control at 140 g/ha [2, 10]: 45 to 59%; pest or weed control at 35 g/ha [2, 11]: 0 to 29%; pest or weed control at 70 g/ha [2, 11]: 0 to 29%; pest or weed control at 140 g/ha [2, 11]: 0 to 29%; pest or weed control at 35 g/ha [2, 12]: 0 to 29%; pest or weed control at 70 g/ha [2, 12]: 0 to 29%; pest or weed control at 140 g/ha [2, 12]: 0 to 29%; pest or weed control at 35 g/ha [2, 13]: 0 to 29%; pest or weed control at 70 g/ha [2, 13]: 0 to 29%; pest or weed control at 140 g/ha [2, 13]: 0 to 29%; pest or weed control at 35 g/ha [2, 14]: 0 to 29%; pest or weed control at 70 g/ha [2, 14]: 0 to 29%; pest or weed control at 140 g/ha [2, 14]: 30 to 44%; melting point: 226 °C
3 | COC(=O)c1nc(-c2cccc3cc[nH]c23)c(F)c(N)c1Cl [Compound 1.47] | 0 to 29 | 0 to 29 | 0 to 29 | 0 to 29 | 0 to 29 | 0 to 29 | 0 to 29 | 0 to 29 | 0 to 29 | 0 to 29 | 0 to 29 | 0 to 29 | 0 to 29 | 0 to 29 | 0 to 29 | 0 to 29 | 0 to 29 | 0 to 29 | 0 to 29 | 0 to 29 | pest or weed control at 140 g/ha [2, 9]: 0 to 29%; pest or weed control at 35 g/ha [2, 10]: 0 to 29%; pest or weed control at 70 g/ha [2, 10]: 0 to 29%; pest or weed control at 140 g/ha [2, 10]: 30 to 44%; pest or weed control at 35 g/ha [2, 11]: 0 to 29%; pest or weed control at 70 g/ha [2, 11]: 0 to 29%; pest or weed control at 140 g/ha [2, 11]: 0 to 29%; pest or weed control at 35 g/ha [2, 12]: 75 to 84%; pest or weed control at 70 g/ha [2, 12]: 75 to 84%; pest or weed control at 140 g/ha [2, 12]: 85 to 94%; pest or weed control at 35 g/ha [2, 13]: 0 to 29%; pest or weed control at 70 g/ha [2, 13]: 0 to 29%; pest or weed control at 140 g/ha [2, 13]: 0 to 29%; pest or weed control at 35 g/ha [2, 14]: 0 to 29%; pest or weed control at 70 g/ha [2, 14]: 0 to 29%; pest or weed control at 140 g/ha [2, 14]: 45 to 59%; melting point: 96 to 100 °C
